In patent publication US4259337A, “Method for using m-trifluoromethylphenyl-piperidines” (Roussel Uclaf, priority 1976, dated 1981):
Where a name gives a salt, the structure may show the parent alone.

Key:
[1] = system: catalepsy provoked by prochlorpemazine; assay: Antagonism of catalepsy provoked by prochlorpemazine; type: in vivo; parameters: key to Antagonism of catalepsy provoked by prochloropemazine for a determined dose in mg/kg: evaluated at the height of the effect was expressed by an increasing number of + signs for a given dose; ++: evaluated at the height of the effect was expressed by an increasing number of + signs for a given dose; +++: evaluated at the height of the effect was expressed by an increasing number of + signs for a given dose; settings: rats; for Antagonism of catalepsy provoked by prochloropemazine for a determined dose in mg/kg: prochlorpemazine 15 mg/kg i.p.; for antagonism toward the cataleptigenic activity of prochlorpemazine: in words, i.p.
Description: The tests are carried out on groups of 5 young rats weighing about 100 g and the cataleptigenic agent used is prochlorpemazine at a dose of 15 mg/kg intraperitoneally. The product studied was administered simultaneously in the same way. The intensity of the catalepsy was evaluated by the test of crossing of the homolateral paws [BOISSIER et al, Therapie, Vol. 18 (1963), p. 1257] every hour for 7 hours. The rating adopted is the following: the animal refuses the crossing of the front paws with the homolateral rear paws (0), he retains the desired crossing on one side only (0.5), he accepts the crossing on both sides (1). The sum of the scores by groups read at different periods after the administration of the product studied is determined. The antagonism of catalepsy provoked by prochlorpemazine evaluated at the height of the effect was expressed by an increasing number of + signs for a given dose and the results are reported in Table II.

[2] = system: rigidity provoked by reserpine; assay: Antagonism with respect to reserpinic rigidity; type: in vivo; parameters: key to Antagonism to reserpinic rigidity for a determined dose in mg/kg: ++: It was expressed by an increasing number of + signs for a given dose expressed in mg/kg; settings: rat; for Antagonism to reserpinic rigidity for a determined dose in mg/kg: reserpine 10 mg/kg i.v., E.M.G.
Description: The antagonism of the compounds with respect to reserpinic rigidity [Jurna I: Arch. Pharmak. Exp. Path. Vol. 260 (1968), p. 80-88] was studied on the rat. The tests consisted of recording, by means of electrodes placed on the muscles of the anterior cavity of one of the rear paws of the animal, the electromyogram (E.M.G.) provoked by a dorsiflection of the instep. A dose of 10 mg/kg of reserpine was administered intraveneously, then, one half hour later when the hypertonicity of the muscle was maximal, the product to be studied was administered in the same way at a dose of 10 mg/kg or of 20 mg/kg.
The electromyographic responses obtained before and after treatment, were compared in intensity and in time. The inhibition observed on the electromyogram expressed the antagonism exercised by the product with respect to the rigidity provoked by reserpine. It was expressed by an increasing number of + signs for a given dose expressed in mg/kg.

mice = assay: Anorexigenic activity in mice; type: in vivo; settings: 20 mg/kg i.p., food intake over following 24 hours
Description: The anorexigenic activity was studied with mice and the animals receive the product studied intraperitoneally 30 minutes before the start of the test. The quantities of nourishment absorbed in the course of the following 24 hours was noted and compared with the quantity of nourishment absorbed in the course of the same period by animals not receiving the product studied. The anorexigenic activity was expressed by an increasing number of + signs for a given dose expressed in mg/kg.

dog = assay: Anorexigenic activity in the dog; type: in vivo; settings: administered in the first ball, 7 hours
Description: The anorexigenic activity was studied on the dog using the method of ADAMS et al [J. Pharm. Sci., Vol. 53 (1964), p. 1405]. On the day of the test of a substance presumed to be anorexigenic, the individual daily ration of the animals was broken down into substantially equal balls (10 to 20 g) which were offered to the dogs every 10 minutes for 7 hours. Normally, the animals regularly accept the successive balls offered to them. Refusal translates the anorexiant effectiveness of the compound studied which was administered in the first ball. The anorexigenic activity was expressed by an increasing number of + signs for a given dose expresses in mg/kg.

Acute toxicity = settings: mouse, in vivo, ip; mice, intraperitoneal, 48 hours after administration
Description: The LD50, the dose at which 50% of the mice died after the intraperitoneal administration of the products to mice was determined 48 hours after the administration.

[3] = system: stereotypies provoked by dexamphetamine; assay: Potentiation of stereotypies provoked by dexamphetamine; type: in vivo; parameters: Potentiation of stereotypies provoked by dexamphetamine for a determined dose in mg/kg: key to the marks not given beside the values; settings: rats; for Potentiation of stereotypies provoked by dexamphetamine for a determined dose in mg/kg: dexamphetamine sulfate 3 mg/kg i.p.
Description: Each animal was placed individually in a grilled cage (29×25 ×17 cm) containing a few wood shavings. A does of 3 mg/kg of dexamphetamine sulfate was injected intraperitoneally one half hour after the intraperitoneal administration of the product studied. The behavior of the animals was noted every half hour for 5 hours with the rating recommended by […] et al [Brit. J. Pharmacol., Vol. 23 (1964), p. 330-350]. The animalis asleep (0), he is awake but immobile (1), he is turning in his cage (2), he is sniffing the lid (3), he is licking the sides (4), he is touching the shavings or the bars of the cage with his teeth (5), he is biting the chips or bars of the cage (6). The total of the scores per group at different periods after the administration of the product studied was determined and the potentiation of the stereotypies evaluated at the height of the effect is expressed by an increasing number of + signs for a given dose.

SMILES	Antagonism of catalepsy provoked by prochloropemazine for a determined dose in mg/kg ([1]; 20 mg/kg i.p.)	antagonism toward the cataleptigenic activity of prochlorpemazine [1]	Antagonism to reserpinic rigidity for a determined dose in mg/kg ([2]; 20 mg/kg i.v.)	anorexigenic activity (mice)	anorexigenic activity (dog; 20 mg/kg)	LD50 at 48 h (Acute toxicity)	Potentiation of stereotypies provoked by dexamphetamine for a determined dose in mg/kg ([3]; 2 mg/kg i.p.)	Potentiation of stereotypies provoked by dexamphetamine for a determined dose in mg/kg ([3]; 0.2 mg/kg i.p.)	activity of potentiation of stereotypies provoked by dexamphetamine ([3]; in words, i.p.)	Antagonism of catalepsy provoked by prochloropemazine for a determined dose in mg/kg ([1]; 50 mg/kg i.p.)	Antagonism to reserpinic rigidity for a determined dose in mg/kg ([2]; 10 mg/kg i.v.)	Antagonism to reserpinic rigidity ([2]; in words, i.v.)	anorexigenic activity (dog; 25 mg/kg)	Potentiation of stereotypies provoked by dexamphetamine for a determined dose in mg/kg ([3]; 20 mg/kg i.p.)
Cl.FC(F)(F)c1cccc(C2CCCNC2)c1 (stereo not drawn) [Example 1, 3-(m-trifluoromethylphenyl)-piperidine hydrochloride]	++	substantial antagonism	++	+	+	~150 mg/kg	–	–	–	–	–	–	–	–
CN1CCCC(c2cccc(C(F)(F)F)c2)C1.Cl (stereo not drawn) [Example 3, N-methyl-3-(m-trifluoromethylphenyl)-piperidine hydrochloride]	+	–	++	–	–	~100 mg/kg	++	–	–	–	–	–	–	–
CC(C)N1CCCC(c2cccc(C(F)(F)F)c2)C1.Cl (stereo not drawn) [Example 4, N-isopropyl-3-(m-trifluoromethylphenyl)-piperidine hydrochloride]	–	substantial antagonism	–	+	–	~100 mg/kg	–	+++	very high activity	+++	++	very high activity	+	–
FC(F)(F)c1cccc(C2CCCN(Cc3ccccc3)C2)c1 (stereo not drawn) [Example 6, N-benzyl-3-(m-trifluoromethylphenyl)-piperidine hydrochloride]	–	–	–	–	–	~150 mg/kg	–	–	–	–	–	–	–	++
